From US11014941B2, “Pyrrolopyrimidine derivatives useful as inhibitors of influenza virus replication” (priority 2017, dated 2021)

Biological target: Influenza PB2 (Influenza A virus, UniProt P03428)
Assay: biochemical
Type: binding
Settings: read-out: Influenza PB2 affinity, IC50

Chain of Influenza PB2 (P03428 whole entry, looked up): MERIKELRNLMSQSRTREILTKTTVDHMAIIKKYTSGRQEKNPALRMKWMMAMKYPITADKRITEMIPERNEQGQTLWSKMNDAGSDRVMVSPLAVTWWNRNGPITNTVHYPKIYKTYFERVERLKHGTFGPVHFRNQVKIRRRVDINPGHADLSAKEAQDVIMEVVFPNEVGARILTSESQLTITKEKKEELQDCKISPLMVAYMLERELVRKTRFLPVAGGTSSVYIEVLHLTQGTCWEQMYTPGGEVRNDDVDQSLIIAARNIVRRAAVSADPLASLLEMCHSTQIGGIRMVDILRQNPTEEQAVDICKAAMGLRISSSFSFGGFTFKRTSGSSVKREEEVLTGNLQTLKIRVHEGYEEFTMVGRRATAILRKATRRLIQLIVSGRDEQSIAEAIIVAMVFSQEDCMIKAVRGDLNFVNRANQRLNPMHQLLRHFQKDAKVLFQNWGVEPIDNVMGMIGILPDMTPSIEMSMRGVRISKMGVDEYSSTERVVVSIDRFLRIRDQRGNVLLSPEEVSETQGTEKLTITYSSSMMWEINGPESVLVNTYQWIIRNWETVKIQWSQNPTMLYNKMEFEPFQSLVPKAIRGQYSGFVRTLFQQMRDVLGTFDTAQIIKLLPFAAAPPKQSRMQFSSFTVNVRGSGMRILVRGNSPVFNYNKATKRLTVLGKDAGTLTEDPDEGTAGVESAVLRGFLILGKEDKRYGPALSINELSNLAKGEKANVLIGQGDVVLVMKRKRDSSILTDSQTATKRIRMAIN

| Structure (SMILES) | IC50 [µM] |
| --- | --- |
| CC(=O)N[C@H]1C2CCC(CC2)[C@@H]1n1cc(Cl)c2cnc(-c3c[nH]c4ncc(F)cc34)nc21 [Compound B166] | 10 to 100 |
| CCOC(=O)C1=CCCCC1n1cc(F)c2cnc(-c3c[nH]c4ncc(Cl)cc34)nc21 (stereo not shown) [Compound B98] | > 100 |
| CCOCCOCCOCCNC(=O)[C@H]1CCC[C@@H](n2ccc3cnc(-c4c[nH]c5ncc(F)cc45)nc32)C1 [Compound B46] | 10 to 100 |
| CN(C)C(=O)CCn1cc(-c2c[nH]c3ncc(F)cc23)c2cncnc21 [Compound C2] | > 100 |
| CCOC(=O)[C@@H]1C2CCC(CC2)[C@H]1n1cc(C#CCCC#N)c2cnc(-c3c[nH]c4ncc(F)cc34)nc21 [Compound B203] | 10 to 100 |
| CC(C(=O)O)n1cc(-c2c[nH]c3ncc(F)cc23)c2cncnc21 (stereo not shown) [Compound C10] | > 100 |
| CN(C)C(=O)N1CCC(Cn2cc(F)c3cnc(-c4c[nH]c5ncc(F)cc45)nc32)CC1 [Compound B63] | 10 to 100 |
| O=C(O)[C@@H]1C2CCC(CC2)C1n1cc(Cl)c2cnc(-c3c[nH]c4ncc(Cl)cc34)nc21 (single isomer, unassigned) [Compound B136] | 1 to 10 |
| CSCCCCc1cn([C@@H]2C3CCC(CC3)[C@H]2C(=O)O)c2nc(-c3c[nH]c4ncc(F)cc34)ncc12 [Compound B192] | < 1 |
| CN(C)C(=O)CCn1ccc2c(-c3c[nH]c4ncc(F)cc34)ncnc21 [Compound A4] | 10 to 100 |
| O=C(O)C1=C(n2cc(F)c3cnc(-c4c[nH]c5ncc(F)cc45)nc32)C2CCC1CC2 [Compound B222] | < 1 |
| O=C(O)[C@@H]1C2CCC(CC2)[C@H]1n1cc(-c2ccncc2)c2cnc(-c3c[nH]c4ncc(F)cc34)nc21 [Compound B147] | 1 to 10 |
| Cc1cn([C@@H]2C3CCC(CC3)[C@H]2C(=O)O)c2nc(-c3c[nH]c4ncc(F)cc34)ncc12 [Compound B163] | < 1 |
| COC(=O)CCn1ccc2cnc(-c3c[nH]c4ncc(F)cc34)nc21 [Compound B3] | > 100 |
| CNC(=O)[C@@H]1CCCC[C@H]1n1cc(F)c2cnc(-c3c[nH]c4ncc(Cl)cc34)nc21 (single isomer, unassigned) [Compound B93] | 1 to 10 |
| O=C(O)[C@@H]1C2CCC(CC2)[C@H]1n1cc(-c2cccc(O)c2)c2cnc(-c3c[nH]c4ncc(F)cc34)nc21 [Compound B145] | < 1 |
| CNC(=O)NCCn1cc(-c2c[nH]c3ncc(F)cc23)c2cncnc21 [Compound C14] | > 100 |
| COC(=O)[C@H](Cc1ccccc1)NC(=O)Cn1ccc2c(-c3c[nH]c4ncc(F)cc34)ncnc21 [Compound A8] | > 100 |
| COC(=O)[C@@H]1C2CCC(CC2)[C@H]1n1cc(-c2ccccc2O)c2cnc(-c3c[nH]c4ncc(F)cc34)nc21 [Compound B170] | 10 to 100 |
| O=C(O)[C@@H]1CCCC[C@H]1n1ccc2cnc(-c3c[nH]c4ncc(F)cc34)nc21 (racemic) [Compound B15] | 1 to 10 |
| O=C(O)[C@@H]1C2CCC(CC2)[C@H]1n1cc(-c2ccccc2)c2cnc(-c3c[nH]c4ncc(F)cc34)nc21 [Compound B150] | 1 to 10 |
| O=C(O)[C@H]1CCC[C@@H]1n1ccc2cnc(-c3c[nH]c4ncc(F)cc34)nc21 [Compound B16] | 1 to 10 |
| O=C(Cn1ccc2c(-c3c[nH]c4ncc(F)cc34)ncnc21)N[C@@H](CO)C(=O)O [Compound A20] | 1 to 10 |
| CCCCCOCCCCCN(C)C(=O)N[C@@H]1CCC[C@H](n2ccc3cnc(-c4c[nH]c5ncc(F)cc45)nc32)C1 [Compound B44] | > 100 |
| O=C(O)[C@@H]1C2CCC(CC2)C1n1cc(Cl)c2cnc(-c3c[nH]c4ncc(Cl)cc34)nc21 (single isomer, unassigned) [Compound B137] | < 1 |
| O=C(O)Cn1cc(-c2c[nH]c3ncc(F)cc23)c2cncnc21 [Compound C4] | > 100 |

| Structure (SMILES) | IC50 [µM] |
| --- | --- |
| CNC(=O)C1=C(n2cc(F)c3cnc(-c4c[nH]c5ncc(Cl)cc45)nc32)C2CCC1CC2 [Compound B221] | 1 to 10 |
| CNC(=O)N[C@H]1CC[C@H](n2ccc3cnc(-c4c[nH]c5ncc(F)cc45)nc32)CC1 [Compound B79] | > 100 |
| COC(=O)[C@H]1CCCC[C@@H]1n1ccc2cnc(-c3c[nH]c4ncc(F)cc34)nc21 [Compound B20] | 10 to 100 |
| CCOCCOCCCCCN(C)C(=O)N[C@@H]1CCC[C@H](n2ccc3cnc(-c4c[nH]c5ncc(F)cc45)nc32)C1 [Compound B45] | 10 to 100 |
| CNC(=O)N1CCC(Cn2cc(F)c3cnc(-c4c[nH]c5ncc(F)cc45)nc32)CC1 [Compound B62] | > 100 |
| CN(C)C(=O)CCN1CCc2cnc(-c3c[nH]c4ncc(F)cc34)nc21 [Compound B12] | 10 to 100 |
| O=C(O)CN1CCc2cnc(-c3c[nH]c4ncc(F)cc34)nc21 [Compound B9] | > 100 |
| CCOC(=O)[C@H]1C2CCC(CC2)[C@@H]1n1ccc2cnc(-c3c[nH]c4ncc(F)cc34)nc21 [Compound B121] | 10 to 100 |
| O=C(O)[C@H]1C2CCC(CC2)[C@@H]1n1cc(Cl)c2cnc(-c3c[nH]c4ncc(Cl)cc34)nc21 [Compound B130] | 1 to 10 |
| CN(C)C(=O)N[C@@H]1CCC[C@H](n2ccc3cnc(-c4c[nH]c5ncc(F)cc45)nc32)C1 [Compound B56] | 10 to 100 |
| CNC(=O)[C@@H]1C2CCC(CC2)[C@H]1n1cc(F)c2cnc(-c3c[nH]c4ncc(Cl)cc34)nc21 [Compound B188] | 1 to 10 |
| O=C(Cn1ccc2c(-c3c[nH]c4ncc(F)cc34)ncnc21)N[C@@H](Cc1ccccc1)C(=O)O [Compound A11] | 10 to 100 |
| O=C(O)Cn1ccc2c(-c3c[nH]c4ncc(F)cc34)ncnc21 [Compound A3] | 1 to 10 |
| O=C(O)[C@H]1C2CCC(CC2)[C@@H]1n1ccc2cnc(-c3c[nH]c4ncc(Cl)cc34)nc21 [Compound B124] | 1 to 10 |
| CC(=O)N1CCCC(Cn2cc(F)c3cnc(-c4c[nH]c5ncc(F)cc45)nc32)C1 (stereo not shown) [Compound B54] | 1 to 10 |
| CNC(=O)N[C@@H]1CCC[C@@H](n2ccc3cnc(-c4c[nH]c5ncc(F)cc45)nc32)C1 [Compound B65] | 1 to 10 |
| CNC(=O)N[C@H]1C2CCC(CC2)[C@@H]1n1cc(Cl)c2cnc(-c3c[nH]c4ncc(F)cc34)nc21 [Compound B168] | 1 to 10 |
| CN(C)C(=O)NCCn1cc(-c2c[nH]c3ncc(F)cc23)c2cncnc21 [Compound C16] | > 100 |
| CN(C)C(=O)Cn1ccc2cnc(-c3c[nH]c4ncc(F)cc34)nc21 [Compound B1] | 10 to 100 |
| CCOC(=O)[C@@H]1C2CCC(CC2)[C@H]1n1cc(CCCCSC)c2cnc(-c3c[nH]c4ncc(F)cc34)nc21 [Compound B201] | > 100 |
| CCCCCOCCCCC(=O)N[C@H]1CCC[C@@H](n2ccc3cnc(-c4c[nH]c5ncc(F)cc45)nc32)C1 [Compound B50] | > 100 |
| CN(C)C(=O)N1CCCCC1Cn1cc(F)c2cnc(-c3c[nH]c4ncc(F)cc34)nc21 (stereo not shown) [Compound B86] | 1 to 10 |
| O=C(O)[C@@H]1C2CCC(CC2)[C@H]1n1ccc2ccc(-c3c[nH]c4ncc(F)cc34)cc21 [Compound B198] | 10 to 100 |
| CNC(=O)N1CCCC(Cn2cc(F)c3cnc(-c4c[nH]c5ncc(F)cc45)nc32)C1 (stereo not shown) [Compound B61] | 1 to 10 |
| NC(=O)C[C@H](NC(=O)Cn1ccc2c(-c3c[nH]c4ncc(F)cc34)ncnc21)C(=O)O [Compound A17] | 1 to 10 |
| CCOCCCCCOCCN(C)C(=O)N[C@@H]1CCC[C@H](n2ccc3cnc(-c4c[nH]c5ncc(F)cc45)nc32)C1 [Compound B41] | 10 to 100 |
